The target of test [1] is T1, IKKβ(1-669) EE homodimer (Homo sapiens, UniProt O14920, S177E/S181E).
T1 construct: a nearly full-length (residues 1-669) and constitutively active (S177E/S181E) mutant construct of human IKKβ; 6×His (followed by TEV site) (N, cleaved yes); made in house; host or cells: Sf21 insect cells (baculovirus)
T1 sequence (O14920 1-669 S177E/S181E): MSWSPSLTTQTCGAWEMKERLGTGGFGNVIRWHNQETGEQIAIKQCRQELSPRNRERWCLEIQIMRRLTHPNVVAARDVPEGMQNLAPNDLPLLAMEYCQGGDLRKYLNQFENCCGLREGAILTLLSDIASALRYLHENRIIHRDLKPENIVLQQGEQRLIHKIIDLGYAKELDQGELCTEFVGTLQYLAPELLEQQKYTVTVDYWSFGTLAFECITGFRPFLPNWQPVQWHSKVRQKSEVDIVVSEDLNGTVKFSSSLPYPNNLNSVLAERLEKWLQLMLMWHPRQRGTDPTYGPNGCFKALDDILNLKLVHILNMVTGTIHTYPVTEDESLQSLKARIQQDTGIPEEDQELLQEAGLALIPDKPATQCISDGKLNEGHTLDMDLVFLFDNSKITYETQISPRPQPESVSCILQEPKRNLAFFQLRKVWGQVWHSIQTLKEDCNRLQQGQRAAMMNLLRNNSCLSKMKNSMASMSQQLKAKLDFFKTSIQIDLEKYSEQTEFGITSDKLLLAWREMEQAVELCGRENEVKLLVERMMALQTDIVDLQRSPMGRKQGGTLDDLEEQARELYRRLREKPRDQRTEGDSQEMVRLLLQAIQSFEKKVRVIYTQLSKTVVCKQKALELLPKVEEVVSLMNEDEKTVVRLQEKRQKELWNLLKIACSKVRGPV
In words: Isothermal titration calorimetry (ITC) of peptide binding to IKKβ homodimer. The note with it: for N (binding stoichiometry of IKKβ: pep) / TΔS / ΔG / ΔH: 25° C.; for N (binding stoichiometry of IKKβ: pep): 1:1 binding model. Here is the method:
(§1) All experiments were performed in ITC buffer (20 mM HEPES pH 8.0, 150 mM NaCl, 1 mM TCEP) unless otherwise stated. Purified IKKα(10-667) EE and IKKβ(1-669) EE protein samples were dialyzed overnight against ITC buffer at 4° C. Just before the ITC experiments, IKKα or IKKβ samples were concentrated, incubated at room temperature for 30 minutes and centrifuged at 11000 g to remove eventual precipitate. The final concentrations of IKKα and IKKβ in the sample cell varied between 22 and 50 μM depending on the measurement. HPLC purified synthetic peptides (IκBα pep) comprising residues 297-317 of IκBα were further desalted using a Nap5 (GE Healthcare, #17-0853-01) column equilibrated in milliQ water, lyophilized and then resuspended in ITC buffer. The concentration of peptides in the syringe varied between 220 and 975 μM depending on the measurement.
(§2) All ITC measurements were performed using a PEAQ-ITC MALVERN instrument. The titration parameters were set as following: temperature 25° C., reference power 10 μcal/s, feedback=high, stirring speed 750 RPM, initial delay 60 s, first injection 0.4 μl in 0.8 s and the remaining 19 injections were 2 μL in 4 s with 120 s of spacing. The data were fitted to a 1:1 binding model. All data were processed using NITPIC software and global fitting of two datasets was carried out using SEDPHAD.
(§3) To evaluate binding affinities, isothermal titration calorimetry (ITC) experiments were performed using a synthetic peptide that comprises the YDDφXφ motif plus the N-terminal acidic patch (residues 297-317, named IκBα pep hereafter) and purified IKKβ(1-669) EE homodimer or an equivalent construct of the IKKα homodimer (i.e. IKKα(10-667) S176E/S180E, named IKKα(10-667) EE hereafter). […] ITC analyses on the IKKα/β heterodimer were prevented by strong aggregation propensity at the concentrations required for these experiments.
(§4) All ITC experiments were performed at 25° C. The data were fitted to a 1:1 binding model. N refers to the binding stoichiometry of IKKα/β: pep, meaning that approximately half of total IKKα/β concentration binds pep ligand in agreement with the dimer form of IKKα/β being binding competent. The values for the IKKα interaction with IRF7 pep should be regarded as estimates due to low affinity and weakly exothermic binding, and therefore high experimental error and fitting uncertainty. All data were processed using NITPIC software and global fitting of two datasets was carried out using SEDPHAD.
For orientation: In ITC the heat of successive injections is recorded.

Test [2] has as its target T2, IKKα(10-667) EE homodimer (Homo sapiens, UniProt O15111, S176E/S180E).
T2 construct: an equivalent construct of the IKKα homodimer (i.e. IKKα(10-667) S176E/S180E, named IKKα(10-667) EE hereafter); 6×His (followed by TEV site) (N, cleaved yes); made in house; host or cells: Sf21 insect cells (baculovirus)
T2 sequence (O15111 10-667 S176E/S180E): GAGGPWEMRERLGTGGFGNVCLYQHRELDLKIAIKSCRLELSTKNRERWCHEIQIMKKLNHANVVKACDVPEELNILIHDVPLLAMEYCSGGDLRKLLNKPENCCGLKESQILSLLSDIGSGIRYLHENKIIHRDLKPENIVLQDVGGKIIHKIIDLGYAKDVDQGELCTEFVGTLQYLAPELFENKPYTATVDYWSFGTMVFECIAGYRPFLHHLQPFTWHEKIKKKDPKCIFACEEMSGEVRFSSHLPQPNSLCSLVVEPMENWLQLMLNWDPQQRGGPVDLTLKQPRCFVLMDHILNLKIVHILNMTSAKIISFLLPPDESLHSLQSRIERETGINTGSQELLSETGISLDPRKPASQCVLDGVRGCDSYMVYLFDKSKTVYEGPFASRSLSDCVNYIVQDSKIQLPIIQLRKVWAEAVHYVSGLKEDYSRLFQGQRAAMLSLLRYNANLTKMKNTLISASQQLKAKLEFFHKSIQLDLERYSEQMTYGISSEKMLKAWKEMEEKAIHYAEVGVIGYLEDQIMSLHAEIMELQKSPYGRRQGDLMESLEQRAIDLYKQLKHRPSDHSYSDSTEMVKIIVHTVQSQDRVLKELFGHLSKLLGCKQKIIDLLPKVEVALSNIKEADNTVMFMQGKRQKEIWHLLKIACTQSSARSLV
Description: Isothermal titration calorimetry (ITC) of peptide binding to IKKα homodimer. The note with it: for TΔS / ΔG / ΔH / Kd: IKKα. Here is the method: as §1, §2, §3, §4

Where two headings read alike, the source gives them in different places. Residues, ends and D or L forms follow the SMILES beside them.

What is called Kd is the concentration at which binding is half-saturated.

`CC(C)C[C@H](NC(=O)[C@@H](NC(=O)[C@H](CC(C)C)NC(=O)[C@H](CCCNC(=N)N)NC(=O)[C@H](CCC(N)=O)NC(=O)CNC(=O)CNC(=O)[C@H](Cc1ccccc1)NC(=O)[C@@H](NC(=O)[C@H](CC(C)C)NC(=O)[C@H](CC(=O)O)NC(=O)[C@H](CC(=O)O)NC(=O)[C@H](Cc1ccc(O)cc1)NC(=O)[C@@H]1CCCN1C(=O)[C@H](CC(C)C)NC(=O)[C@H](CCC(=O)O)NC(=O)[C@H](CC(=O)O)NC(=O)[C@H](CCC(=O)O)NC(=O)[C@@H](NC(=O)[C@H](Cc1ccccc1)NC(=O)[C@@H](N)CCC(=O)O)[C@@H](C)O)C(C)C)[C@@H](C)O)C(=O)O` [IkBα pep C308L] (H-EFTEDELPYDDLVFGGQRLTL-OH; N-terminus and C-terminus assumed): in test [1] (ITC), the “enhancement of affinity to IKKβ relative to IκBα pep wt” value was found to be 15 fold and the “N (binding stoichiometry of IKKβ: pep)” value is 0.63. In addition, in test [1] (ITC, IKKβ), the TΔS is -4.59 kcal/mol, the ΔG was -7.61 kcal/mol and the ΔH was -12.2 kcal/mol. Besides, in test [1] (ITC, IKKβ, read-out: KD), the dissociation constant (Kd) is 2.6 µM. Moreover, in test [2], the “enhancement of affinity to IKKα relative to IκBα pep wt” value is given as 25 fold and the dissociation constant (Kd) was determined as 0.35 µM. In addition, in test [2] (25° C., 1:1 binding model), the “N (binding stoichiometry of IKKα: pep)” value was found to be 0.65. In test [2] (25° C.), the TΔS is -4.71 kcal/mol, the ΔG was -8.80 kcal/mol and the ΔH was -13.5 kcal/mol.

On to `CC(C)C[C@H](NC(=O)[C@@H](NC(=O)[C@H](CC(C)C)NC(=O)[C@H](CCCNC(=N)N)NC(=O)[C@H](CCC(N)=O)NC(=O)CNC(=O)CNC(=O)[C@H](Cc1ccccc1)NC(=O)[C@@H](NC(=O)[C@H](CS)NC(=O)[C@H](CC(=O)O)NC(=O)[C@H](CC(=O)O)NC(=O)[C@H](Cc1ccc(O)cc1)NC(=O)[C@@H]1CCCN1C(=O)[C@H](CC(C)C)NC(=O)[C@H](CCC(=O)O)NC(=O)[C@H](CC(=O)O)NC(=O)[C@H](CCC(=O)O)NC(=O)[C@@H](NC(=O)[C@H](Cc1ccccc1)NC(=O)[C@@H](N)CCC(=O)O)[C@@H](C)O)C(C)C)[C@@H](C)O)C(=O)O` [IκBα pep] (H-EFTEDELPYDDCVFGGQRLTL-OH; N-terminus and C-terminus assumed), for which the Kd in test [1] came to 40 µM. Moreover, the “N (binding stoichiometry of IKKβ: pep)” value in test [1] (ITC) is 0.58. In test [1] (ITC, IKKβ), this compound came in with a TΔS of -9.78 kcal/mol, a ΔG of -6.00 kcal/mol and a ΔH of -15.8 kcal/mol. In addition, in test [2] (25° C., 1:1 binding model), the “N (binding stoichiometry of IKKα: pep)” value was 0.62 and the Kd turned out to be 9 µM. In test [2] (25° C.), this compound came in with a TΔS of -8.35 kcal/mol, a ΔG of -6.88 kcal/mol and a ΔH of -15.2 kcal/mol.

Source of the values: patent US20260265321A1, “PEPTIDE AND POLYPEPTIDE INHIBITING THE NF-KB SIGNALING PATHWAY” (Centre National de la Recherche Scientifique, priority 2023, published 2026).
